Series [1] deals with T1, EZH2 (Homo sapiens, UniProt Q15910).
T1 construct: TEV site (FLAG-tev-EZH2) (N); made in house; host or cells: Sf9 insect cells (baculovirus)
The series can be described thus: Mechanism of GSK126 inhibition of EZH2 (IC50 at varied SAM and peptide). In kind it is biochemical. Conditions: SAM 0.1-15 μM; peptide 16-60 μM. The text has this: The resulting IC50 values were plotted against the [SAM]/Km ratio or the [peptide]/Km ratio respectively.

The subject of series [2] is H3K27me3 and EZH2 target genes in tumor xenografts. Put plainly: Pharmacodynamic study in tumor xenografts (H3K27me3/H3 ELISA, qRT-PCR). Type of series: in vivo, mice. The conditions noted are these: 10 days of once-daily (QD) dosing; dose-dependent. The procedure: Following tissue homogenization, tumor tissue lysates were prepared using the Epigentek Histone Extraction kit (OP-0006). […] Cells were lysed with 0.2N HCl for 30 minutes to extract histones, the acid-insoluble portion was pelleted by centrifugation, and the supernatant was neutralized with neutralization buffer (1M Na2HPO4, pH 12.5; ActiveMotif) containing protease inhibitors (Roche). Lysates were added to Maxisorp ELISA plates (Nunc) in duplicate on each of two plates plus blocking buffer (1% BSA). […] Luminata Forte substrate (Millipore) was added 5 minutes before chemiluminescence was quantified with an EnVision multi-label plate reader (PerkinElmer). H3K27me3 levels were normalized to total H3 values and IC50 values were determined using a 4-parameter curve fit. […]
All studies were conducted after review by the Institutional Animal Care and Use Committee at GSK and in accordance with the GSK Policy on the Care, Welfare and Treatment of Laboratory Animals. […] Tumors were measured with calipers, block randomized according to tumor size into treatment groups. […] Mice were weighed and tumors measured with calipers twice weekly. […]
A general note: In an ELISA, binding on a coated surface is turned into a signal by an enzyme label.

In series [3] the target is EZH1 (Homo sapiens, UniProt Q92800). The series can be described thus: Inhibition of EZH1 methyltransferase activity. Type of series: biochemical. The conditions noted are these: read-out: Ki app.
Series [4] deals with KARPAS-422. Put plainly: Cell cycle analysis by flow cytometry. In kind it is cell-based, human. The conditions noted are these: 500 nM GSK126, 72 hours. Here is the method: Cell cycle phase distribution was examined by flow cytometry. […] Cells were washed with PBS, pelleted in BD buffer solution, flash frozen, and stored at −80° C. CycleTest™ PLUS DNA reagent kit (Becton Dickinson, 340242) was used according to the manufacturer's instructions to prepare and stain nuclei with propidium iodide. Samples were evaluated using a FACSCalibur flow cytometer (Becton Dickinson) and data were analyzed using FlowJo software (Tree Star).

Series [5] in a line: Tolerability in xenograft-bearing mice (body weight, behavior). In kind it is in vivo. Here is the method: (§1) All studies were conducted after review by the Institutional Animal Care and Use Committee at GSK and in accordance with the GSK Policy on the Care, Welfare and Treatment of Laboratory Animals. […] Pfeiffer or KARPAS-422 cells (1×10^7) in 100% matrigel (BD Biosciences) were implanted subcutaneously in female beige SCID mice. Tumors were measured with calipers, block randomized according to tumor size into treatment groups. […] Mice were weighed and tumors measured with calipers twice weekly. For mouse pharmacokinetic studies, tumor and blood samples were harvested from euthanized mice at the indicated time. […] For pharmacodynamic studies, a portion of each tumor was frozen for H3K27me3/H3 ELISAs or placed in RNAlater (Ambion) for RNA isolation. For peripheral blood analyses, blood was harvested via cardiac puncture from euthanized, immunocompetent CD-1 mice (3 mice/group) on day 18. Blood was immediately placed into a Microtainer EDTA tube (BD) and gently mixed by inverting. A complete blood count analysis was conducted using the Advia 2120 hematology analyzer (Siemens Medical Solutions) using multi-species software as per manufacturer's instructions.

Series [6] concerns TXNIP and TNFRSF21 expression. Put plainly: qRT-PCR of H3K27me3-enriched genes. In kind it is cell-based, human. Conditions: 72 hours. The procedure: RNA (2.8 μg) was reverse transcribed with MultiScribe Reverse Transcriptase (Applied BioSystems) according to the manufacturer's recommendations. The resulting cDNA was diluted and used along with TaqMan gene expression assays (Applied Biosystems; GAPDH, Hs03929097_g1; TNFRSF21, Hs00205419_m1; TXNIP, Hs00197750_m1). TaqMan Gene Expression Master Mix (Applied BioSystems), and a ViiA 7 Real-Time PCR System (Applied BioSystems) according to the manufacturer's recommendations to quantify gene expression.
In general terms: Quantitative PCR measures a nucleic acid by following its amplification.

Series [7] can be described thus: Complete blood count analysis of peripheral blood. In kind it is in vivo. Conditions: immunocompetent CD-1 mice; twice weekly dosing over 18 days. The procedure: as §1

The source of these data is US20170348306A1, “METHODS OF TREATING CANCER” (GLAXOSMITHKLINE LLC, priority 2011, published 2017).

T1 sequence (Q15910 whole entry): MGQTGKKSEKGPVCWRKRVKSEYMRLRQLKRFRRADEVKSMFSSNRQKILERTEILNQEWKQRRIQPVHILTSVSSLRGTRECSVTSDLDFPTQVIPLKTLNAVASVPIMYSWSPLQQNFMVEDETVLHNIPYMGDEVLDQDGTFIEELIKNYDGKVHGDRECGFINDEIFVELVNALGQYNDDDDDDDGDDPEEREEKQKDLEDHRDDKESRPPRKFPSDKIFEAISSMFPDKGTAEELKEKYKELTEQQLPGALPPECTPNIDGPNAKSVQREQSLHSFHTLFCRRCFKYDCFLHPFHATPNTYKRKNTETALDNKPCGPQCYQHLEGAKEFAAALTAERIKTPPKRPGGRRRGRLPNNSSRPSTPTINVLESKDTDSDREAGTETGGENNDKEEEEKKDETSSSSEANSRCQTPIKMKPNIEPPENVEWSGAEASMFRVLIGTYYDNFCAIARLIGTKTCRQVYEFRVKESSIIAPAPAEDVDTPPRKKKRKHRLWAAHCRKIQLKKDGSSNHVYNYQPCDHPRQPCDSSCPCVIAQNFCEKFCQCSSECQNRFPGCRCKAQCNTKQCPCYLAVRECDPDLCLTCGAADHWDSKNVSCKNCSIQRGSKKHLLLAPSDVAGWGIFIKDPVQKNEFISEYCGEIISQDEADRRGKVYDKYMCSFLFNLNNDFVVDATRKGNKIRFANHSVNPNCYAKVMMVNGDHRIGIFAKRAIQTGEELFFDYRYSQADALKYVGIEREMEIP
T1 sequence (O75530 whole entry partner): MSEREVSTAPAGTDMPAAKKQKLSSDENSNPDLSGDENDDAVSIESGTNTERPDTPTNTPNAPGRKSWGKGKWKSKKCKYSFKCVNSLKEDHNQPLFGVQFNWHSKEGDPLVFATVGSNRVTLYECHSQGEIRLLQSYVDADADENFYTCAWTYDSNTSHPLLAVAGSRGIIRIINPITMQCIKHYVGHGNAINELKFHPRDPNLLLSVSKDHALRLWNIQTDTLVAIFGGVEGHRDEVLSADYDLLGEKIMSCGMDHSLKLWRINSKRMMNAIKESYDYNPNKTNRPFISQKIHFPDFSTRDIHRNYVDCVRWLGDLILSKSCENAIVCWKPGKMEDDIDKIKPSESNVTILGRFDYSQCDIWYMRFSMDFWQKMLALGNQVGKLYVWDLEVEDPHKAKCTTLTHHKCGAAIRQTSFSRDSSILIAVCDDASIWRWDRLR
T1 sequence (Q15022 whole entry partner): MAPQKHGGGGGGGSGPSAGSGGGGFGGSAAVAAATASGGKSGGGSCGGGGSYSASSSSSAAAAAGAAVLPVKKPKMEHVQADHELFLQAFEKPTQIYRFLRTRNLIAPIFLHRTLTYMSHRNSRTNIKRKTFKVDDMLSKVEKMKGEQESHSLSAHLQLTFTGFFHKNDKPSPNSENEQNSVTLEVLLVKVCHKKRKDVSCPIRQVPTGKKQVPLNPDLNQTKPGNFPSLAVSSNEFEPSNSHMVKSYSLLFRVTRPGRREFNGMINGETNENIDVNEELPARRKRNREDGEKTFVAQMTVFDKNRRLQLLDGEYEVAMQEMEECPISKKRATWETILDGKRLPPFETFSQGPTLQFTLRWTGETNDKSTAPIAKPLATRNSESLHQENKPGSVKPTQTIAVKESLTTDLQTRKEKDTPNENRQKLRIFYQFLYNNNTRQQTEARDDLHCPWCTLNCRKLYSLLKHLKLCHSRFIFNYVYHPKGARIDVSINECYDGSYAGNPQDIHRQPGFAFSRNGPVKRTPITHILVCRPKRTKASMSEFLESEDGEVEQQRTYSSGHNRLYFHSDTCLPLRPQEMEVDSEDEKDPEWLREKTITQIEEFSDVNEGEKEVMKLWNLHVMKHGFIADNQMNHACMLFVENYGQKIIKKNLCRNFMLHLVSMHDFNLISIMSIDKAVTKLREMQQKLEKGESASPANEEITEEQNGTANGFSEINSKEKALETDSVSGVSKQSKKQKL
T1 sequence (Q09028 whole entry partner): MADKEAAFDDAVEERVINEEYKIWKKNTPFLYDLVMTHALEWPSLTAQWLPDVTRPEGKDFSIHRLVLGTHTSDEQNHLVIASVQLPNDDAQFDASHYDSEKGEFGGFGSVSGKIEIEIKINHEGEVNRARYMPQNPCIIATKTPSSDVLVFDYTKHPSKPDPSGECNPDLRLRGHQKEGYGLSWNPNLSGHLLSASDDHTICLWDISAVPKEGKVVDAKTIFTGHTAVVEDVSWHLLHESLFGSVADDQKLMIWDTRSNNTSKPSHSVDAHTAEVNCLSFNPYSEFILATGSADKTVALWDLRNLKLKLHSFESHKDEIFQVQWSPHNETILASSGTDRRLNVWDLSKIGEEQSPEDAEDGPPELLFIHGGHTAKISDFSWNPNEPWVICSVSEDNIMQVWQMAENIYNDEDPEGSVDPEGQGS
T1 sequence (Q6ZN18 1-503 partner limits assumed): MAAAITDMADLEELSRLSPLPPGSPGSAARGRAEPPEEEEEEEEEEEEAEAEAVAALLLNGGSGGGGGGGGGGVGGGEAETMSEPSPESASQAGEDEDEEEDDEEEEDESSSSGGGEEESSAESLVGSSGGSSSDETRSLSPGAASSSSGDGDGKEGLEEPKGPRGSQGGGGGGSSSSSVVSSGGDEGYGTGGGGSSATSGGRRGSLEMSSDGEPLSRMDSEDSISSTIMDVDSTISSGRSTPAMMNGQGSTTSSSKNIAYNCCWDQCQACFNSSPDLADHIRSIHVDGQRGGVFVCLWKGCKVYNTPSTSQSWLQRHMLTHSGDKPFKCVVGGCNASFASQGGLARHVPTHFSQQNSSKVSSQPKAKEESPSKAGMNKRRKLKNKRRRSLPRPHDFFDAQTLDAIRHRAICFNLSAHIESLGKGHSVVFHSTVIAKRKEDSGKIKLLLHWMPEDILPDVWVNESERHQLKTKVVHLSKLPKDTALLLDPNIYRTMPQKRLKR
EZH1, sequence (Q92800 whole entry): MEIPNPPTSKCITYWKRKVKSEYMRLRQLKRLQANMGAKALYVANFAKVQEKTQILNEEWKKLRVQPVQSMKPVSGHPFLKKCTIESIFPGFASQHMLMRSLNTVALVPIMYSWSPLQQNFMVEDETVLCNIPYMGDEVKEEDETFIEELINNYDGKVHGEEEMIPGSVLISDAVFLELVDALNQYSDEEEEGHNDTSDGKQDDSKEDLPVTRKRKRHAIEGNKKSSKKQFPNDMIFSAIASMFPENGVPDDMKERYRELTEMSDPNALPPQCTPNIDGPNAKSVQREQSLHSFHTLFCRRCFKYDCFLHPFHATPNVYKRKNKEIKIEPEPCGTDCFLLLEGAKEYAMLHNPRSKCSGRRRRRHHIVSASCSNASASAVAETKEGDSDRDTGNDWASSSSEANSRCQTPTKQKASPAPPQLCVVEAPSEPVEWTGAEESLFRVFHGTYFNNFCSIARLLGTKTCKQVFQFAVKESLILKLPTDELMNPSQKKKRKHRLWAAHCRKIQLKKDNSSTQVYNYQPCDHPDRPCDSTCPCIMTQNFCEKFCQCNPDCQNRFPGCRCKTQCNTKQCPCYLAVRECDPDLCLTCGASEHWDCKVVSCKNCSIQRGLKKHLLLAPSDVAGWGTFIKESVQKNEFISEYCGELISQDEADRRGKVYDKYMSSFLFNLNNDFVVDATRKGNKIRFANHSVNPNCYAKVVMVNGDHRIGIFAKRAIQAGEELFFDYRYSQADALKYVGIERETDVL
EZH1, sequence (O75530 whole entry partner): as the sequence (O75530 whole entry partner) above
EZH1, sequence (Q15022 whole entry partner): as the sequence (Q15022 whole entry partner) above

As to `CC[C@H](C)n1cc(C)c2c(C(=O)NCc3c(C)cc(C)[nH]c3=O)cc(-c3ccc(N4CCNCC4)nc3)cc21` [GSK126], the mechanism of inhibition result in series [1] was “competitive with SAM and non-competitive with peptide substrates”. In series [2], the “gene expression in tumor xenografts” value is “increased” and the “global H3K27me3 in tumor xenografts” value is listed as “decreased”. Besides, the Ki in series [3] was 89 nM. Besides, in series [4], the “cells in G1” value worked out at 77%. The tolerability entry in series [5] (doses and schedules examined, mice with xenografts) is listed as “well tolerated”. In series [5] (mice bearing Pfeiffer or KARPAS-422 xenografts), the body weight result is given as “little to no decrease in body weight”. Moreover, the “lowest concentration with dose-responsive increases in gene expression” value in series [6] (Pfeiffer and KARPAS-422, two H3K27me3-enriched genes) turned out to be 25 nM. The “gene expression changes (qRT-PCR)” value in series [6] (Toledo, up to 1 μM GSK126) is recorded as “no transcriptional changes”. Besides, the “complete blood count, blood cell types” value in series [7] is listed as “no significant changes”.
